What was measured:
Assay in all cases: relative viability (nuclei count vs DMSO), 5 days (fraction); higher = more cells survive
Carboplatin + OSI-027 = compound: C1CC(C1)(C(=O)O)C(=O)O.[NH2-].[NH2-].[Pt+2] [Carboplatin] + COc1cccc2cc(-c3nc([C@H]4CC[C@H](C(=O)O)CC4)n4ncnc(N)c34)[nH]c12 [OSI-027] (partner 0.5 µM)
In short: (§1)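 Values are medians from duplicate plates. Each reflects relative viability, defined as the nuclei count of treated wells over that of vehicle wells. Lung cancer cell lines in 1536-well plates were pin-tool dosed one day after seeding with one drug alone or with a fixed anchor-drug dose plus five library-drug doses (not always all listed) in √10 steps, then fixed, stained and imaged at 4× after 5 days.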

Carboplatin + Vorinostat = compound: C1CC(C1)(C(=O)O)C(=O)O.[NH2-].[NH2-].[Pt+2] [Carboplatin] + O=C(CCCCCCC(=O)Nc1ccccc1)NO [Vorinostat] (partner 1 µM)
In short: as §1

GSK126 + OSI-027 = compound: CC[C@H](C)N1C=C(C2=C(C=C(C=C21)C3=CN=C(C=C3)N4CCNCC4)C(=O)NCC5=C(C=C(NC5=O)C)C)C [GSK126] + COc1cccc2cc(-c3nc([C@H]4CC[C@H](C(=O)O)CC4)n4ncnc(N)c34)[nH]c12 [OSI-027] (partner 0.5 µM)
In short: as §1

MLN4924 + Alpelisib = compound: NS(=O)(=O)OC[C@@H]1C[C@@H](n2ccc3c(N[C@H]4CCc5ccccc54)ncnc32)C[C@@H]1O [MLN4924] + Cc1nc(NC(=O)N2CCC[C@H]2C(N)=O)sc1-c1ccnc(C(C)(C)C(F)(F)F)c1 [Alpelisib] (partner 2 µM)
In short: as §1

Cell Line	relative viability (Carboplatin + OSI-027; first compound 0.08 µM)	relative viability (Carboplatin + OSI-027; first compound 0.253 µM)	relative viability (Carboplatin + OSI-027; first compound 0.8 µM)	relative viability (Carboplatin + OSI-027; first compound 2.53 µM)	relative viability (Carboplatin + OSI-027; first compound 8 µM)	relative viability (Carboplatin + Vorinostat; first compound 0.08 µM)	relative viability (Carboplatin + Vorinostat; first compound 0.253 µM)	relative viability (Carboplatin + Vorinostat; first compound 0.8 µM)	relative viability (Carboplatin + Vorinostat; first compound 2.53 µM)	relative viability (Carboplatin + Vorinostat; first compound 8 µM)	relative viability (GSK126 + OSI-027; first compound 0.08 µM)	relative viability (GSK126 + OSI-027; first compound 0.253 µM)	relative viability (GSK126 + OSI-027; first compound 0.8 µM)	relative viability (GSK126 + OSI-027; first compound 2.53 µM)	relative viability (GSK126 + OSI-027; first compound 8 µM)	relative viability (MLN4924 + Alpelisib; first compound 0.04 µM)	relative viability (MLN4924 + Alpelisib; first compound 0.1265 µM)	relative viability (MLN4924 + Alpelisib; first compound 0.4 µM)	relative viability (MLN4924 + Alpelisib; first compound 1.265 µM)	relative viability (MLN4924 + Alpelisib; first compound 4 µM)
NCI-H2085	0.719	0.849	0.783	0.64	0.628	0.803	0.764	0.839	0.761	0.711	0.919	0.716	0.839	0.683	0.812	0.921	1.01	0.94	0.743	0.416
PC-3 [JPC-3]	0.88	0.821	0.754	0.729	0.588	1.14	0.799	0.9	0.765	0.685	0.839	0.847	0.76	0.822	0.855	0.996	0.963	0.896	0.327	0.266
NCI-H1355	0.476	0.375	0.413	0.377	0.415	0.745	0.673	0.648	0.655	0.559	0.412	0.362	0.418	0.453	0.44	0.831	0.865	0.776	0.35	0.152
NCI-H838	0.468	0.32	0.439	0.364	0.391	0.733	0.705	0.728	0.626	0.608	0.43	0.403	0.309	0.424	0.379	0.795	0.658	0.261	0.168	0.148
